The test system of experiment [1] is Pseudomonas aeruginosa. Briefly: MIC of antibiotics by microdilution in liquid medium on plates (Example 18). It counts as cell-based. The settings on record: for MIC: Pseudomonas aeruginosa. The protocol:
The unicellular living organism chosen for the trials is Pseudomonas aeruginosa (wild-type strain originating from hospital sources).
The same methodology as for Examples 11 and 12 was follows. Bacteriostatic analyses were performed with a number of antibiotics belonging to benzylpenicillins, and aminopenicillins, and first and second generation cephalosporins, namely:
The determination of the MIC was carried out by the microdilution method in liquid medium on plates. Aqueous solutions of each antibiotic are prepared in MUELLER HINION broth, to obtain dilutions in a geometric ratio of 2. The solvent is sterile double-distilled water.
The preparation of the bacterial inoculum is made with a culture of Pseudomonas aeruginosa, with agitation on a water bath at 37° C. for 4 to 6 hours, giving 10^6 bacteria/ml.
Three trials were performed per antibiotic and per bacterial inoculum. The trials were performed first with the antibiotics alone (trials a).sctn., and then with the addition of a dose of 1 mg/l of an aqueous solution of lithium fluoride (trials b).sctn. to the dilution of each one in every cup of every plate.

In experiment [2] the test system is Pseudomonas aeruginosa. In words: Resistance of Pseudomonas aeruginosa to antiseptics in terms of water hardness and proteins.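 Further: R means colony growth observed and S means no significant growth; key: R: resistant (a growth of colonies was observed); S: sensitive (no significant growth was observed).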 It counts as cell-based. The protocol:
The resistance of Pseudomonas aeruginosa to various reputedly bactericidal active principles or commercial antiseptics was studied in terms of the hardness of the water and the presence or absence of proteins. The same trial was carried out on the foaming paste according to the invention (see Example 15).

Setting [3] is: + LiF 1 mg/l, strain lic R βLac^+ OXA, read-out: MIC (average MIC value).
[4] abbreviates: + LiF 1 mg/l, strain lic R βLac^+ PSE, read-out: MIC (average MIC value).
Where [5] appears, read: + LiF 1 mg/l, strain lic R βLac^+ TEM, read-out: MIC (average MIC value).
[6] abbreviates: + LiF 1 mg/l, strain lic R βLac^+ cephalosporinase, read-out: MIC (average MIC value).
The mark [7] stands for this setting: + LiF 1 mg/l, strain lic S βLac^- (first column), read-out: MIC (average MIC value).
Where [8] appears, read: + LiF 1 mg/l, strain lic S βLac^- (second column), read-out: MIC (average MIC value).
Where [9] appears, read: alone, strain lic R βLac^+ OXA, read-out: MIC (average MIC value).
Setting [10] is: alone, strain lic R βLac^+ PSE, read-out: MIC (average MIC value).
Setting [11] is: alone, strain lic R βLac^+ TEM, read-out: MIC (average MIC value).
Setting [12] is: alone, strain lic R βLac^+ cephalosporinase, read-out: MIC (average MIC value).
The mark [13] stands for this setting: alone, strain lic S βLac^- (first column), read-out: MIC (average MIC value).
The mark [14] stands for this setting: alone, strain lic S βLac^- (second column), read-out: MIC (average MIC value).
[15] abbreviates: 0.2 ml inoculum, contact time 10 mn, distilled water, P+.
[16] abbreviates: 0.2 ml inoculum, contact time 10 mn, distilled water, P-.
Setting [17] is: 0.2 ml inoculum, contact time 10 mn, hard water, P+.
Setting [18] is: 0.2 ml inoculum, contact time 10 mn, hard water, P-.
Setting [19] is: 0.4 ml inoculum, contact time 20 mn, distilled water, P+.
The mark [20] stands for this setting: 0.4 ml inoculum, contact time 20 mn, distilled water, P-.
Setting [21] is: 0.4 ml inoculum, contact time 20 mn, hard water, P+.
[22] abbreviates: 0.4 ml inoculum, contact time 20 mn, hard water, P-.
Setting [23] is: 0.6 ml inoculum, contact time 30 mn, distilled water, P+.
Setting [24] is: 0.6 ml inoculum, contact time 30 mn, distilled water, P-.
Setting [25] is: 0.6 ml inoculum, contact time 30 mn, hard water, P+.
The mark [26] stands for this setting: 0.6 ml inoculum, contact time 30 mn, hard water, P-.

Where two headings read alike, the source gives them in different places.

For `CC1(C)S[C@@H]2[C@H](NC(=O)[C@H](NC(=O)c3cnc4cccnc4c3O)c3ccccc3)C(=O)N2[C@H]1C(=O)O` [APALCILLIN, apalcillin], the MIC was found to be 32 µg/mL in the experiment on Pseudomonas aeruginosa [1] (setting [3]); 32 µg/mL in the experiment with Pseudomonas aeruginosa [1] (setting [4]); 8 µg/mL in the experiment on Pseudomonas aeruginosa [1] (setting [5]); 16 µg/mL in the experiment on Pseudomonas aeruginosa [1] (setting [6]); 2 µg/mL in the experiment on Pseudomonas aeruginosa [1] (setting [7]); 8 µg/mL in the experiment on Pseudomonas aeruginosa [1] (setting [8]). In addition, the MIC with Pseudomonas aeruginosa [1] (setting [9]) worked out at 32 µg/mL; with Pseudomonas aeruginosa [1] (setting [10]), 64 µg/mL; with Pseudomonas aeruginosa [1] (setting [11]), 16 µg/mL; in the experiment on Pseudomonas aeruginosa [1] (setting [12]), 16 µg/mL; with Pseudomonas aeruginosa [1] (setting [13]), 4 µg/mL; with Pseudomonas aeruginosa [1] (setting [14]), 16 µg/mL.
Regarding `CC1(C)S[C@@H]2[C@H](NC(=O)[C@H](NC(=O)N3CCNC3=O)c3ccccc3)C(=O)N2[C@H]1C(=O)O` [AZLOCILLIN, azlocillin], the MIC was determined as 64 µg/mL in the experiment on Pseudomonas aeruginosa [1] (setting [3]); 64 µg/mL in the experiment on Pseudomonas aeruginosa [1] (setting [4]); 64 µg/mL in the experiment with Pseudomonas aeruginosa [1] (setting [5]); 128 µg/mL in the experiment on Pseudomonas aeruginosa [1] (setting [6]); 4 µg/mL in the experiment on Pseudomonas aeruginosa [1] (setting [7]); 32 µg/mL in the experiment with Pseudomonas aeruginosa [1] (setting [8]). Further, the MIC in the experiment on Pseudomonas aeruginosa [1] (setting [9]) was found to be 64 µg/mL; in the experiment with Pseudomonas aeruginosa [1] (setting [10]) it was 64 µg/mL; in the experiment on Pseudomonas aeruginosa [1] (setting [11]), 64 µg/mL; in the experiment with Pseudomonas aeruginosa [1] (setting [12]), 128 µg/mL; in the experiment on Pseudomonas aeruginosa [1] (setting [13]) it was 8 µg/mL; in the experiment on Pseudomonas aeruginosa [1] (setting [14]), 32 µg/mL.
`CC(C)(O/N=C(\C(=O)N[C@@H]1C(=O)N2C(C(=O)[O-])=C(C[n+]3ccccc3)CS[C@H]12)c1csc(N)n1)C(=O)O` [CAFTAZIDIME, ceftazidime]: the MIC in the experiment with Pseudomonas aeruginosa [1] (read-out: MIC (average MIC value), + LiF 1 mg/l, strain lic R βLac^+ OXA) turned out to be 4 µg/mL; in the experiment with Pseudomonas aeruginosa [1] (read-out: MIC (average MIC value), + LiF 1 mg/l, strain lic R βLac^+ PSE) it was 2 µg/mL; in the experiment on Pseudomonas aeruginosa [1] (read-out: MIC (average MIC value), + LiF 1 mg/l, strain lic R βLac^+ TEM), 4 µg/mL; with Pseudomonas aeruginosa [1] (read-out: MIC (average MIC value), + LiF 1 mg/l, strain lic R βLac^+ cephalosporinase), 32 µg/mL; in the experiment with Pseudomonas aeruginosa [1] (read-out: MIC (average MIC value), + LiF 1 mg/l, strain lic S βLac^- (first column)), 2 µg/mL; in the experiment on Pseudomonas aeruginosa [1] (read-out: MIC (average MIC value), + LiF 1 mg/l, strain lic S βLac^- (second column)) it was 4 µg/mL. Also, the MIC in the experiment on Pseudomonas aeruginosa [1] (read-out: MIC (average MIC value), alone, strain lic R βLac^+ OXA) was found to be 4 µg/mL; with Pseudomonas aeruginosa [1] (read-out: MIC (average MIC value), alone, strain lic R βLac^+ PSE), 2 µg/mL; in the experiment with Pseudomonas aeruginosa [1] (read-out: MIC (average MIC value), alone, strain lic R βLac^+ TEM), 4 µg/mL; in the experiment on Pseudomonas aeruginosa [1] (read-out: MIC (average MIC value), alone, strain lic R βLac^+ cephalosporinase), 32 µg/mL; in the experiment on Pseudomonas aeruginosa [1] (read-out: MIC (average MIC value), alone, strain lic S βLac^- (first column)), 4 µg/mL; with Pseudomonas aeruginosa [1] (read-out: MIC (average MIC value), alone, strain lic S βLac^- (second column)), 4 µg/mL.
With `NC(=O)c1cc[n+](CC2=C(C(=O)O)N3C(=O)[C@@H](NC(=O)[C@@H](c4ccccc4)S(=O)(=O)[O-])[C@H]3SC2)cc1` [CEFSULODIN, cefsulodin], the MIC with Pseudomonas aeruginosa [1] (setting [3]) amounted to 16 µg/mL; in the experiment on Pseudomonas aeruginosa [1] (setting [4]) it was 16 µg/mL; in the experiment with Pseudomonas aeruginosa [1] (setting [5]), 32 µg/mL; in the experiment on Pseudomonas aeruginosa [1] (setting [6]), 64 µg/mL; with Pseudomonas aeruginosa [1] (setting [7]), 4 µg/mL; in the experiment with Pseudomonas aeruginosa [1] (setting [8]) it was 16 µg/mL. Further, the MIC is 16 µg/mL in the experiment on Pseudomonas aeruginosa [1] (setting [9]); 32 µg/mL in the experiment with Pseudomonas aeruginosa [1] (setting [10]); 32 µg/mL in the experiment with Pseudomonas aeruginosa [1] (setting [11]); 64 µg/mL in the experiment on Pseudomonas aeruginosa [1] (setting [12]); 4 µg/mL in the experiment with Pseudomonas aeruginosa [1] (setting [13]); 16 µg/mL in the experiment on Pseudomonas aeruginosa [1] (setting [14]).
As to `CO/N=C(\C(=O)N[C@@H]1C(=O)N2C(C(=O)O)=C(CSc3nc(=O)c(=O)[nH]n3C)CS[C@H]12)c1csc(N)n1` [CEFTRIAXONE, ceftriaxone], the MIC worked out at 32 µg/mL in the experiment with Pseudomonas aeruginosa [1] (setting [3]); 16 µg/mL in the experiment with Pseudomonas aeruginosa [1] (setting [4]); 32 µg/mL in the experiment on Pseudomonas aeruginosa [1] (setting [5]); 128 µg/mL in the experiment on Pseudomonas aeruginosa [1] (setting [6]); 8 µg/mL with Pseudomonas aeruginosa [1] (setting [7]); 16 µg/mL with Pseudomonas aeruginosa [1] (setting [8]). Moreover, the MIC stood at 32 µg/mL with Pseudomonas aeruginosa [1] (setting [9]); 32 µg/mL in the experiment on Pseudomonas aeruginosa [1] (setting [10]); 32 µg/mL with Pseudomonas aeruginosa [1] (setting [11]); 256 µg/mL in the experiment on Pseudomonas aeruginosa [1] (setting [12]); 16 µg/mL in the experiment on Pseudomonas aeruginosa [1] (setting [13]); 32 µg/mL in the experiment on Pseudomonas aeruginosa [1] (setting [14]).
Consider `C=O` [Formaldehyde], for which the resistance result in the experiment with Pseudomonas aeruginosa [2] (setting [15]), in the experiment on Pseudomonas aeruginosa [2] (setting [16]), with Pseudomonas aeruginosa [2] (setting [17]), with Pseudomonas aeruginosa [2] (setting [18]), in the experiment on Pseudomonas aeruginosa [2] (setting [19]) and in the experiment on Pseudomonas aeruginosa [2] (setting [20]) was “S” in each case. The resistance entry in the experiment with Pseudomonas aeruginosa [2] (setting [21]), in the experiment with Pseudomonas aeruginosa [2] (setting [22]), in the experiment with Pseudomonas aeruginosa [2] (setting [23]), with Pseudomonas aeruginosa [2] (setting [24]), in the experiment on Pseudomonas aeruginosa [2] (setting [25]) and in the experiment on Pseudomonas aeruginosa [2] (setting [26]) was “S” in each case.
For the compound `CCN1CCN(C(=O)N[C@@H](C(=O)N[C@@H]2C(=O)N3[C@@H]2SC(C)(C)[C@@H]3C(=O)O)c2ccccc2)C(=O)C1=O` [PIPERACILLIN, piperacillin], the MIC stood at 64 µg/mL in the experiment on Pseudomonas aeruginosa [1] (setting [3]); 64 µg/mL in the experiment on Pseudomonas aeruginosa [1] (setting [4]); 64 µg/mL in the experiment on Pseudomonas aeruginosa [1] (setting [5]); 128 µg/mL in the experiment on Pseudomonas aeruginosa [1] (setting [6]); 8 µg/mL in the experiment with Pseudomonas aeruginosa [1] (setting [7]); 8 µg/mL with Pseudomonas aeruginosa [1] (setting [8]). The MIC is 64 µg/mL in the experiment with Pseudomonas aeruginosa [1] (setting [9]); 128 µg/mL with Pseudomonas aeruginosa [1] (setting [10]); 64 µg/mL in the experiment with Pseudomonas aeruginosa [1] (setting [11]); 128 µg/mL in the experiment with Pseudomonas aeruginosa [1] (setting [12]); 8 µg/mL in the experiment on Pseudomonas aeruginosa [1] (setting [13]); 16 µg/mL in the experiment on Pseudomonas aeruginosa [1] (setting [14]).
As to `O=S(=O)([O-])[O-].[Zn+2]` [Zinc sulphate], the resistance result with Pseudomonas aeruginosa [2] (setting [15]), in the experiment with Pseudomonas aeruginosa [2] (setting [16]), in the experiment with Pseudomonas aeruginosa [2] (setting [17]), in the experiment on Pseudomonas aeruginosa [2] (setting [18]), in the experiment with Pseudomonas aeruginosa [2] (setting [19]) and in the experiment with Pseudomonas aeruginosa [2] (setting [20]) was “R” in each case. The resistance result in the experiment with Pseudomonas aeruginosa [2] (setting [21]), with Pseudomonas aeruginosa [2] (setting [22]), in the experiment on Pseudomonas aeruginosa [2] (setting [23]), in the experiment with Pseudomonas aeruginosa [2] (setting [24]), in the experiment on Pseudomonas aeruginosa [2] (setting [25]) and in the experiment on Pseudomonas aeruginosa [2] (setting [26]) was “R” throughout.
On to `CC1(C)S[C@@H]2[C@H](NC(=O)[C@H](C(=O)O)c3ccsc3)C(=O)N2[C@H]1C(=O)O` [ticarcillin], for which the “number of strains resistant, of 958 strains tested” value in the experiment on Pseudomonas aeruginosa [1] turned out to be 235. Further, the MIC is 512 µg/mL in the experiment with Pseudomonas aeruginosa [1] (setting [9]); 4100 µg/mL in the experiment with Pseudomonas aeruginosa [1] (setting [10]); 1020 µg/mL with Pseudomonas aeruginosa [1] (setting [11]); 256 µg/mL with Pseudomonas aeruginosa [1] (setting [12]); 32 µg/mL with Pseudomonas aeruginosa [1] (setting [13]); 512 µg/mL in the experiment with Pseudomonas aeruginosa [1] (setting [14]).

The values above are taken from patent US5800838A, “Composition that inhibits or destroys at least one unicellular living organism containing fluorine F- and Lithium li+” (priority 1987, dated 1998).
